Laboratory results as given in ChEMBL document CHEMBL1201862, “PubChem BioAssay data set” (2004).
The source made the active and inactive calls.

Legend:
[1] = tested on: Vero; test: host cell cytotoxicity of antiviral hits, dose response, cytotoxicity control for West Nile virus antiviral project, secondary assay (AID 1650); type: functional; conditions: Chlorocebus sabaeus
[2] = tested on: INS1; test: beta cell apoptosis inhibitors, cytokine rescue, dose response, luminescence, retest (AID 449756); type: functional, cell-based; conditions: Rattus norvegicus;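 also: cell death triggered by IL-1 beta plus TNF-alpha plus IFN-gamma mixture; protective hits raise ATP signal compared with cytokine alone wells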
[3] = Fluorescence Cell-Based Dose Response to Identify Inhibitors of Thrombin Receptor-Activating Peptide SFLLRN-Mediated P-Selectin Induction on Platelets. [Related pubchem assays: 1663 (Primary HTS), 1889 (retest at dose ), 1891 (counterscreen), 1678 (Project Summary)]; type: functional
[4] = target: Luciferin 4-monooxygenase (Photinus pyralis, UniProt P08659); test: firefly luciferase enzyme inhibitors, dose response, biochemical, luminescence (AID 1891)
[5] = Luminescence Cell-Based Dose Confirmation HTS to Identify Inhibitors of Platelet Dense Granule Release. [Related pubchem assays: 1663 (Primary HTS), 1678 (Summary of Project)]; type: functional
[6] = target: T1, Disintegrin and metalloproteinase domain-containing protein 17 (Homo sapiens, UniProt P78536); test: exosite inhibitors of ADAM17, dose response, biochemical (AID 743260)
[7] = inhibitors of intracellular T. cruzi replication, confirmation, NIH3T3 host cells, beta-gal luminescence (AID 2044); type: functional, cell-based;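 also: intracellular parasites grown in NIH/3T3 mouse fibroblasts as host cells; luminescent beta-galactosidase reporter signal from transgenic T. cruzi replicating inside host cells; inhibitors lower the luminescence signal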
[8] = cytotoxicity toward NIH3T3 fibroblasts, dose response, counter-screen, cell-based, ATP luminescence, mouse fibroblasts (AID 2010); type: functional;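 also: cells exposed to compound for about 90 hours before reading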
[9] = ADAM10 protease inhibitors, dose response, selectivity assay for ADAM17 exosite inhibitor project, biochemical, FRET peptide substrate, recombinant human ADAM10 (AID 743259);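 also: ADAM10 enzyme cleaving a FRET peptide substrate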
[10] = target: E3 ubiquitin-protein ligase Mdm2 (Homo sapiens, UniProt Q00987); test: enhancers of MDM2-luciferase reporter signal, concentration-effect titration, project on inhibitors of MDM2 ubiquitin ligase, cellular assay, luminescent readout, 384-well plate format (AID 1394); type: functional;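 also: MDM2 E3 inhibitors raise luminescence so EC50 is for signal enhancement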
[11] = tested on: BJ; test: cytotoxicity toward Ras-transformed BJeLR fibroblasts, dose response, cell-based, alamar blue fluorescence, cherrypicked samples (AID 2631); type: functional; conditions: Homo sapiens;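 also: confirmatory dose-response assay in RAS-dependent BJ fibroblasts engineered with TERT, LT and ST, with cytotoxicity read by fluorescence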
[12] = target: Ephrin type-A receptor 4 (Mus musculus, UniProt Q03137); test: inhibitors of EphA4 binding to KYL peptide, primary screen, biochemical, colorimetric, mouse EphA4 (AID 689); type: functional
[13] = M. tuberculosis H37Rv growth inhibitors, H37Rv strain (AID 1626); type: functional
[14] = Shn3 3'UTR reporter inhibitors, dose response, cell-based, Clone20 osteoblasts, firefly luciferase, cherry-picked (AID 624132); type: functional;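 also: firefly luciferase luminescence from reporter carrying the Shn3 3'UTR in osteoblasts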
[15] = HepG2 cell cytotoxicity, dose response, cytotoxicity control for Shn3 inhibitor project, CellTiter-Glo, cherry-picked (AID 624134); type: functional, cell-based
[16] = target: T1, Disintegrin and metalloproteinase domain-containing protein 17; test: ADAM17 protease inhibitors, dose response, counter-screen for ADAM10 exosite inhibitor project, biochemical, quenched FRET substrate (AID 743253)
[17] = ADAM10 inhibitors, peptide cleavage, dose response, biochemical, QFRET (AID 743254);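 also: ADAM10 enzyme with the DM2 quenched FRET peptide as substrate; EDANS fluorescence gain as the protease cuts the substrate; inhibitor potency against ADAM10 proteolytic activity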
[18] = control 3'UTR Renilla luciferase suppression, dose response, counter-screen for Shn3 inhibitor project, cell-based, Clone20-Shn3RL, cherry-picked (AID 624133); type: functional
[19] = non-specific cell cytotoxicity, dose response, cytotoxicity control for PAX8 inhibitor project, plate reader, dry powder samples (AID 743021); type: functional, cell-based
[20] = inhibitors of PGC1a acetylation in cells, dose response, cell-based, cherry-picked samples (AID 720514); type: functional;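 also: potency may reflect raised or lowered acetylation signal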
[21] = THP-1 cell cytotoxicity, dose response, cytotoxicity control for Vif-APOBEC3G degradation inhibitor project, THP-1 cells (AID 1117359); type: functional; conditions: Human immunodeficiency virus 1, THP-1
[22] = P. falciparum 3D7-ScDHODH growth inhibitors, dose response, SYBR Green, dry powder samples (AID 1159570); type: functional, cell-based;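 also: parasite growth measured after 72 hours of compound exposure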
[23] = HepG2 cell cytotoxicity, dose response, cytotoxicity control, plate reader, dry powder samples (AID 1159569); type: functional, cell-based;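 also: inhibitor potency with signal falling toward the positive control level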
[24] = P. falciparum ATP4 D1247Y mutant growth inhibitors, dose response, NITD609-resistant line, SYBR Green, dry powder (AID 1159571); type: functional, cell-based;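 also: parasites synchronized at ring stage by sorbitol before testing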
[25] = P. falciparum Dd2 growth inhibitors, dose response, SYBR Green, dry powder samples (AID 1159566); type: functional, cell-based;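 also: potency for growth inhibition with lower SYBR green DNA signal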
[26] = P. falciparum Dd2 growth inhibitors, dose response, SYBR Green, cherry-picked samples (AID 1159567); type: functional, cell-based
[27] = HepG2 cell cytotoxicity, dose response, cytotoxicity control, cherry-picked samples (AID 1159577); type: functional, cell-based

T1 sequence (P78536 whole entry, the tested form may be a part): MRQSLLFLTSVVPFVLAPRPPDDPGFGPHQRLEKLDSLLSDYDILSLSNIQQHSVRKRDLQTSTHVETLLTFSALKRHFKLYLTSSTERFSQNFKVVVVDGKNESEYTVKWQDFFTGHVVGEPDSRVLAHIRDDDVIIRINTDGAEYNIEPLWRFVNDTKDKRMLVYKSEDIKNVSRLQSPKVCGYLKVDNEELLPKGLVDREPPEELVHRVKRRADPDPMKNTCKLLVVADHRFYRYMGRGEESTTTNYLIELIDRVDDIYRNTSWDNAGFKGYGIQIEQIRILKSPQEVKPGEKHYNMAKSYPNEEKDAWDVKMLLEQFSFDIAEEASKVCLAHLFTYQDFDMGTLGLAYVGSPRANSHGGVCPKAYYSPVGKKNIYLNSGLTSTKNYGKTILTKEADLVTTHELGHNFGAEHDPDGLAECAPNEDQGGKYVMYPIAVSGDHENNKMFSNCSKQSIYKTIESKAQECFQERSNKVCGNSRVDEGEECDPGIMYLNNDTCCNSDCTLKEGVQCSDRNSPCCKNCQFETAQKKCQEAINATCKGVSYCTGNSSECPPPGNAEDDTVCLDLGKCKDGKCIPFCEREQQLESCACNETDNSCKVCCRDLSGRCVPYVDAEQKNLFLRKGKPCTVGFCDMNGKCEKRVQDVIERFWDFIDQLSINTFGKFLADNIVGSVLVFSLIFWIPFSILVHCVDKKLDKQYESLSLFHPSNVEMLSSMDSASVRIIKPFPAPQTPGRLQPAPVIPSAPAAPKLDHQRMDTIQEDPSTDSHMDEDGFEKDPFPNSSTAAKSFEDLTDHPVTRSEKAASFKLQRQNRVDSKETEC
Chain of Ephrin type-A receptor 4 (Q03137 whole entry): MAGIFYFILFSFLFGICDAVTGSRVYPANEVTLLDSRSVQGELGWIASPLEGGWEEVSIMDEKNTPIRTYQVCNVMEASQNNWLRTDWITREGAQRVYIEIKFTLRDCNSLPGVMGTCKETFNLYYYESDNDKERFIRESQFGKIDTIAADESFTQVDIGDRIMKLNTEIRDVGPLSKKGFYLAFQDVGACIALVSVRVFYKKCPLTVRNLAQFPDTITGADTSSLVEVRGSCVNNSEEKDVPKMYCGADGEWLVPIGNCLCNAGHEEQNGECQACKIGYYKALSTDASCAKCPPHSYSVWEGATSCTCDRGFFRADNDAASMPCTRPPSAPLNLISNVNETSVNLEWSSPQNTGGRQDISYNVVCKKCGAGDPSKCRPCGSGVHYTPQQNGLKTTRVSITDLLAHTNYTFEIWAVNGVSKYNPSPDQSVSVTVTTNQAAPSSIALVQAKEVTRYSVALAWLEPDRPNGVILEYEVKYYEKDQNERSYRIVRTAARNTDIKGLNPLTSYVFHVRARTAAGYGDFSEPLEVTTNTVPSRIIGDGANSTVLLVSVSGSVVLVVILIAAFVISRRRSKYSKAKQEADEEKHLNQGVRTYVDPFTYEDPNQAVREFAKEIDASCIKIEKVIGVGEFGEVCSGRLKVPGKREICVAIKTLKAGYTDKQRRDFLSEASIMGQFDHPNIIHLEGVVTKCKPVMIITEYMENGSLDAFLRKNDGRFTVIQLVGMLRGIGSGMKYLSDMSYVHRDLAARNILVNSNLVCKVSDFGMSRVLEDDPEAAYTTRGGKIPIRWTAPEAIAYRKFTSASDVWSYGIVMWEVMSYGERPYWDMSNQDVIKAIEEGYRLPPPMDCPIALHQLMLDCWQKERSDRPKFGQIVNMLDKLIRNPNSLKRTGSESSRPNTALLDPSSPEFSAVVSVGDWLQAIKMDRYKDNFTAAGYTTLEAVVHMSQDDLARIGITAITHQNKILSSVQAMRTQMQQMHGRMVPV
Chain of Luciferin 4-monooxygenase (P08659 whole entry): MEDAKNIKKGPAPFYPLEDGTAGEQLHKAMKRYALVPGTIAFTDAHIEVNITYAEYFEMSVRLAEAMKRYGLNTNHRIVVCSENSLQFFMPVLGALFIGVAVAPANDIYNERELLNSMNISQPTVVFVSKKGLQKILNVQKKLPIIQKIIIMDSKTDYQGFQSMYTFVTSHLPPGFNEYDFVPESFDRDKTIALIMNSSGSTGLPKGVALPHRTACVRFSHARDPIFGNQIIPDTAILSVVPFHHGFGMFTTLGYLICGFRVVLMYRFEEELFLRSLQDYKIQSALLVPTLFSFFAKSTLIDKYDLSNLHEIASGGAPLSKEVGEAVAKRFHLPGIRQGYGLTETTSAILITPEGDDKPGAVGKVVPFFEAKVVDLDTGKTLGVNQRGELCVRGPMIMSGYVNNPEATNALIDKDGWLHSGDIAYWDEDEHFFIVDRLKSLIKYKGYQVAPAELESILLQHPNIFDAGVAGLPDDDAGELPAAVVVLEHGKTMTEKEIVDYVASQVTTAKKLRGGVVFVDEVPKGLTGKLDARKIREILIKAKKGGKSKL
Chain of E3 ubiquitin-protein ligase Mdm2 (Q00987 whole entry): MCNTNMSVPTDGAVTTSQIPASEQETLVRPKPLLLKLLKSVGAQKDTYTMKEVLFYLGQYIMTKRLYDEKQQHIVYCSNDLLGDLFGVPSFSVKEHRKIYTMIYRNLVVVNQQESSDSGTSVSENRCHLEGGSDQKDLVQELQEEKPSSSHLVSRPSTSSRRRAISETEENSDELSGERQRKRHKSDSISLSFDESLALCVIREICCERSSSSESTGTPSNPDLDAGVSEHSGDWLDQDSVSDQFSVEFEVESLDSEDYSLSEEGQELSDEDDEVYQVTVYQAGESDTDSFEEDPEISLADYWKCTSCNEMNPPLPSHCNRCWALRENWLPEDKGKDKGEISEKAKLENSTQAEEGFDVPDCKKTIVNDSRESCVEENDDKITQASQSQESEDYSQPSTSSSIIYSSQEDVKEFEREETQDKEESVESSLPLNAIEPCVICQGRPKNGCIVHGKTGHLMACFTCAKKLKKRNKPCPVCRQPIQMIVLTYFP

Structure (SMILES): Cn1c(=O)[nH]c(=O)c2c1nc(N1CCN(C(c3ccccc3)c3ccccc3)CC1)n2CCO
- CC50 [1]: 14.5 µM (active)
- AC50 [2]: 6.24 µM (active)

Structure (SMILES): COc1ccccc1-n1cc(-c2ccc(Cl)cc2)nc1O
- EC50 [3]: < 0.3 µM (active)
- EC50 [4]: > 112 µM (not active)
- EC50 [5]: 1.89 µM (active)

Structure (SMILES): CCCn1c(SCC(=O)N2c3ccccc3Sc3ccccc32)nc2ccccc21
- IC50 [6]: > 69.5 µM (inactive)
- EC50 [7]: 2.9 µM (active)
- EC50 [8]: > 60 µM (not active)
- IC50 [9]: 19.7 µM (inactive)

Structure (SMILES): CCc1c(C)c(C#N)c2nc3ccccc3n2c1Cl
- EC50 [10]: 9.98 µM (not active)
- EC50 [11]: 0.443 µM (inconclusive)

Structure (SMILES): COc1cccc(C2(CSc3nnc(-c4cc(OC)c(OC)c(OC)c4)o3)OCCO2)c1
- IC50 [12]: > 100 µM (not active)

Structure (SMILES): CC(=O)Nc1ccc(NC(=O)c2ccc(C3SCC(=O)N3CCc3ccccc3)cc2)cc1 (configuration not stated)
- IC50 [13]: > 100 µM (active)

Structure (SMILES): C=CCC[C@H](Cc1ccc(F)cc1)C(=O)OC[C@H](Cc1c[nH]c2ccccc12)NC(=O)[C@@H](CC=C)CC(=O)N[C@H](CO)Cc1ccccc1
- IC50 [6]: > 69.5 µM (inactive)
- AC50 [14]: 4.44 µM (active)
- AC50 [15]: 17 µM (active)
- IC50 [16]: > 69.5 µM (inactive)
- IC50 [17]: > 69.5 µM (inactive)
- AC50 [18]: 15.8 µM (active)
- IC50 [9]: 58.9 µM (inactive)

Structure (SMILES): Oc1nc2ccccc2n1C1CCN(C(c2ccccc2OC(F)(F)F)c2nnnn2-c2ccc3c(c2)OCCO3)CC1 (configuration not stated)
- IC50 [17]: > 69.5 µM (inactive)
- AC50 [19]: 37.1 µM (active)

Structure (SMILES): C[C@H](CO)N1C[C@H](C)[C@@H](CN(C)Cc2cccnc2)Oc2cc(C#CC3CCCCC3)ccc2S1(=O)=O
- AC50 [20]: 6.45 µM (active)

Structure (SMILES): CCOC(=O)C1=C(C)N=c2s/c(=C/c3ccco3)c(=O)n2C1c1cccc(OC)c1 (configuration not stated)
- IC50 [12]: > 100 µM (not active)
- CC50 [21]: > 40 µM (active)

Structure (SMILES): COCc1cn([C@@H]2C[C@@H]3O[C@@H](CO)CC[C@@H]3O[C@@H]2CCc2ccc(-c3ccc(OC)cc3)cc2)nn1
- AC50 [22]: 0.231 µM (active)
- AC50 [23]: 43 µM (active)
- AC50 [24]: 0.451 µM (active)
- AC50 [25]: 0.362 µM (active)
- AC50 [26]: 1.12 µM (active)

Structure (SMILES): C[C@H](CO)N1C[C@H](C)[C@@H](CN(C)C(=O)c2ccc(F)cc2)Oc2ncc(/C=C/c3ccccc3)cc2C1=O
- AC50 [22]: 2.68 µM (active)
- AC50 [23]: 85.2 µM (active)
- AC50 [24]: 1.65 µM (active)
- AC50 [25]: 1.58 µM (active)
- AC50 [26]: 1.63 µM (active)

Structure (SMILES): O=S(=O)(c1ccc(-c2ccccc2)cc1)N1C[C@@H]2N[C@H](C1)[C@@H]2c1ccc(-c2ccccc2)cc1
- AC50 [26]: 2.86 µM (active)
- AC50 [27]: 16 µM (active)
